Source: patent US20260191825A1, “CONTRACEPTIVE COMPOUNDS AND DOSING FOR THE SAME” (YourChoice Therapeutics, Inc., priority 2024, published 2026)

Assay: Rat GLP single dose study, PK at the NOAEL
Settings: male, in vivo, 1000 mg/kg, single dose 1,000 mg/kg (NOAEL)

For `Cc1ccc(C2=CC(C)(C)Oc3ccc(-c4ccc(-c5ccc(C(=O)O)cc5)[nH]4)cc32)cc1` [Compound A], the AUC(0-t) (Day 1, mean, read-out: AUC0-24) was 560 µg·h/mL, the Tmax (Day 1, median) was 48 h and the half-life (Day 1, median, calculated from only 2 animals) was 16.9 h. It also gave a Cmax (Day 1, n = 20, mean) of 45100 ng/mL.
